The results in this text go back to ChEMBL document CHEMBL3286313 (J Med Chem, 2014).

The structures appear in SMILES notation. Values joined by “and” are separate entries in the source; they are usually repeats but may differ in a detail not shown here. Identical values can stand only once. Active and inactive are the calls of the source. No cut-off for these calls is given here.

In one test the target is T1, D(4) dopamine receptor (Homo sapiens, UniProt P21917).
T1 sequence (P21917 whole entry): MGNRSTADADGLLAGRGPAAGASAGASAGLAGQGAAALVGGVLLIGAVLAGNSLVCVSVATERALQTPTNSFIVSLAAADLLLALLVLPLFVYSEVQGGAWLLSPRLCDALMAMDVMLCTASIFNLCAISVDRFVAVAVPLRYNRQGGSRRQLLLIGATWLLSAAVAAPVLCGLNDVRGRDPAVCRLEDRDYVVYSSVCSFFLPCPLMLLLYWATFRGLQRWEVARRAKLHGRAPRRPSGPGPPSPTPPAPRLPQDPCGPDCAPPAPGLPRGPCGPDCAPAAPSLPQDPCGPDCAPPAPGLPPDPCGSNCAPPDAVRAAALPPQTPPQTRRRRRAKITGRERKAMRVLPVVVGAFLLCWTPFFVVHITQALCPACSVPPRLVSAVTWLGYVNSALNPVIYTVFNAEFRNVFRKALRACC
The test can be described thus: biochemical. It counts as cell-based, CHO.

For test [1], the target named is T2, D(2) dopamine receptor (Homo sapiens, UniProt P14416). Nature of the test: biochemical. Format: cell-based, CHO.
The target in test [2] is T2, D(2) dopamine receptor. The test can be described thus: biochemical. Format: cell-based, CHO. This is another data set of the same source.
Test [3] addresses T3, D(3) dopamine receptor (Homo sapiens, UniProt P35462). The test can be described thus: biochemical. Format: cell-based, CHO.
Test [4] has as its target T3, D(3) dopamine receptor. It counts as functional, cell-based, HEK293.
A further test concerns the target D(1A) dopamine receptor (Homo sapiens, UniProt P21728). Nature of the test: biochemical. It counts as cell-based, HEK293.
Test [5] has as its target T2, D(2) dopamine receptor.
In test [6] the target is T2, D(2) dopamine receptor. This is another data set of the same source.
Test [7] addresses 5-hydroxytryptamine receptor 2A (Homo sapiens, UniProt P28223). The test can be described thus: biochemical. Format: cell-based, HEK293.
For a further test, the system named is Mus musculus. The test can be described thus: CNS activity in C57Bl/6J mouse assessed as auditory startle response at 3 mg/kg, ip measured after 15 mins. Format: functional, organism-based. More on the design: dose 3 mg/kg.

T3 sequence (P35462 whole entry): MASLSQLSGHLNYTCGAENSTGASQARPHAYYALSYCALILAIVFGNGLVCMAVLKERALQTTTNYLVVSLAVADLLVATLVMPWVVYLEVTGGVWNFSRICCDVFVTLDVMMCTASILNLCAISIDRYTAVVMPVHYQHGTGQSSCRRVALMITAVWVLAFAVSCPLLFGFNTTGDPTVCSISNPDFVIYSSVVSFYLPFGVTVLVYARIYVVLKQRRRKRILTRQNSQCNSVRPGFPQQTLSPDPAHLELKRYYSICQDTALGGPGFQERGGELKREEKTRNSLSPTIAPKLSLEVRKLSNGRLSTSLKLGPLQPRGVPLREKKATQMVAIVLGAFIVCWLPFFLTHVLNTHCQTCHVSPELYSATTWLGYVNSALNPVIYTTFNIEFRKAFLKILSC
Chain of D(1A) dopamine receptor (P21728 whole entry): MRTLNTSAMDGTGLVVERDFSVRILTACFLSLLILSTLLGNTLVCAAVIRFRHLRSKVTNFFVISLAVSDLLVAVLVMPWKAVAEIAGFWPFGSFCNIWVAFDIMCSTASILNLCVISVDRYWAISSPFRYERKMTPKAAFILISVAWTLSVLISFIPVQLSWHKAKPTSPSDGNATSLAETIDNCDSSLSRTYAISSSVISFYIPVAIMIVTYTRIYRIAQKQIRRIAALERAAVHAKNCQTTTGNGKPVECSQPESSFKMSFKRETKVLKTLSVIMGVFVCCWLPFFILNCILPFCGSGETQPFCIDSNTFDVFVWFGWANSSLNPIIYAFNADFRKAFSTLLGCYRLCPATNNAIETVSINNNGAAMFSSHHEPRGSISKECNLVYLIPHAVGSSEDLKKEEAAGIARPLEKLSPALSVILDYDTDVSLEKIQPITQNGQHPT
T2 sequence (P14416 whole entry): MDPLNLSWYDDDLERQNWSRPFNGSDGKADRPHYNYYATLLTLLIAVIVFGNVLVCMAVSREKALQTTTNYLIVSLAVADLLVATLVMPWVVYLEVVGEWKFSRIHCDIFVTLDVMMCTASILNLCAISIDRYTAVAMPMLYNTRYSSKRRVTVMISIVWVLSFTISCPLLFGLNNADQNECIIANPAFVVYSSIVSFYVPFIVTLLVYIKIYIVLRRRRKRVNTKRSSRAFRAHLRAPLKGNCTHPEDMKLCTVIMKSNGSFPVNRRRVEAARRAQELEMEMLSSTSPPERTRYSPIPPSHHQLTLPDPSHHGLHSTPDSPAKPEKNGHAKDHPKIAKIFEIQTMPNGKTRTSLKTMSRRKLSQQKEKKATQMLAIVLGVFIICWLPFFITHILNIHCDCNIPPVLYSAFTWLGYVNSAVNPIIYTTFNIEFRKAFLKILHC
Chain of 5-hydroxytryptamine receptor 2A (P28223 whole entry): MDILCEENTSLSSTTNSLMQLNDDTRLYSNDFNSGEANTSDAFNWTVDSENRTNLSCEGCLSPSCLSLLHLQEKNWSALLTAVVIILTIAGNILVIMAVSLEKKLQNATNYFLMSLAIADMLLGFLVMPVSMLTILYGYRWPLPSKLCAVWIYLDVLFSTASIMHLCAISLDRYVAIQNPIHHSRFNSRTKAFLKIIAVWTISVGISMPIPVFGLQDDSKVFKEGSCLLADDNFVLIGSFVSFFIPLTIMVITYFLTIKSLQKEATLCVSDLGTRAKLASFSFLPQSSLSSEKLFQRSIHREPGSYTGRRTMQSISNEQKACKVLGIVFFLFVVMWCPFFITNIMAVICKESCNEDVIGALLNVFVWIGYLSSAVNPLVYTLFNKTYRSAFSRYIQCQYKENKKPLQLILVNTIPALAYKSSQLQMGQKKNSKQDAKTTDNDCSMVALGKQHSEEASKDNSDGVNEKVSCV

Broadly, the Ki is a dissociation constant, usually derived from enzyme kinetics or from competition with a known ligand. As to `O=Cc1cnn2c(OCCCCN3CCN(c4cccc(Cl)c4Cl)CC3)cccc12`, the Ki amounted to 78 nM on D(4) dopamine receptor, 51 nM on D(2) dopamine receptor [1], 15 nM on D(2) dopamine receptor [2] and 6.4 nM at D(3) dopamine receptor [3].

What is called EC50 is the concentration giving half of the maximal effect. A higher EC50 goes with lower potency in that assay. Broadly, the IC50 is the concentration that gives 50% inhibition. With `O/N=C/c1cnn2ccc(OCCCCN3CCN(c4cccc(Cl)c4Cl)CC3)cc12` (stereo in doubt; 8b), the values for the EC50 at D(3) dopamine receptor [4] and on D(2) dopamine receptor [5] were 39 nM and 240 nM, respectively. The Ki on D(4) dopamine receptor amounted to 6 nM; at D(2) dopamine receptor [1], 0.17 nM; at D(1A) dopamine receptor it was 670 nM; on D(2) dopamine receptor [2], 0.25 nM; in [7] it was 4 nM; on D(3) dopamine receptor [3], 0.69 nM. This compound returned an IC50 on D(2) dopamine receptor [6] of 3.8 nM.

Consider `OCc1cc2cc(OCCCCN3CCN(c4cccc(Cl)c4Cl)CC3)ccn2n1`, for which the results for the EC50 on D(3) dopamine receptor [4] and at D(2) dopamine receptor [5] were 5.9 nM and 540 nM, respectively. Moreover, the Ki at D(4) dopamine receptor came out at 35 nM; on D(2) dopamine receptor [1] it was 3.1 nM; at D(1A) dopamine receptor, 240 nM; at D(2) dopamine receptor [2], 2.3 nM; in test [7] it was 16 nM; on D(3) dopamine receptor [3], 1.3 nM.

Consider `O=Cc1cnn2cccc(OCCCCN3CCN(c4cccc(Cl)c4Cl)CC3)c12`, for which the Ki at D(4) dopamine receptor is 41 nM; at D(2) dopamine receptor [1], 29 nM; on D(2) dopamine receptor [2], 24 nM; on D(3) dopamine receptor [3] it was 20 nM.

On to `O=Cc1cc2cc(OCCCCN3CCN(c4cccc(Cl)c4Cl)CC3)ccn2n1`, for which the response at D(3) dopamine receptor [4] was half-maximal at 5 nM (EC50). The Ki at D(4) dopamine receptor was determined as 89 nM; on D(2) dopamine receptor [1], 14 nM; at D(1A) dopamine receptor, 180 nM; at D(2) dopamine receptor [2], 14 nM; in [7] it was 56 nM; on D(3) dopamine receptor [3], 6 nM. For the same compound, the IC50 at D(2) dopamine receptor [6] was 28.8 nM and 22 nM.

Consider `O=Cc1cnn2cc(OCCCCN3CCN(c4cccc(Cl)c4Cl)CC3)ccc12`, for which the EC50 at D(3) dopamine receptor [4] came to 110 nM; on D(2) dopamine receptor [5], 340 nM. Also, the Ki came to 18 nM on D(4) dopamine receptor, 6.2 nM at D(2) dopamine receptor [1], 8.1 nM at D(2) dopamine receptor [2] and 2 nM on D(3) dopamine receptor [3].

Regarding `O=Cc1cnn2ccc(OCCCCN3CCN(c4cccc(Cl)c4Cl)CC3)cc12`, the EC50 at D(3) dopamine receptor [4] turned out to be 1.9 nM; on D(2) dopamine receptor [5], 650 nM. Besides, the Ki on D(4) dopamine receptor amounted to 57 nM; at D(2) dopamine receptor [1], 4.6 nM; at D(1A) dopamine receptor it was 970 nM; on D(2) dopamine receptor [2], 3.2 nM; in [7], 240 nM; at D(3) dopamine receptor [3] it was 6.9 nM. For the same compound, the result in the test on Mus musculus was Active. This compound yielded an IC50 against D(2) dopamine receptor [6] of 360 nM.

For the compound `Clc1cccc(N2CCN(CCCCOc3ccn4nccc4c3)CC2)c1Cl`, the EC50 was 66 nM at D(3) dopamine receptor [4] and 180 nM on D(2) dopamine receptor [5]. The Ki was determined as 130 nM on D(4) dopamine receptor, 34 nM on D(2) dopamine receptor [1], 39 nM on D(2) dopamine receptor [2] and 7 nM at D(3) dopamine receptor [3].

As to `Clc1cccc(N2CCN(CCCCOc3ccc4ccnn4c3)CC2)c1Cl`, the EC50 came to 41 nM on D(3) dopamine receptor [4] and 1300 nM on D(2) dopamine receptor [5]. For the same compound, the Ki at D(4) dopamine receptor was determined as 4.4 nM; at D(2) dopamine receptor [1] it was 4.2 nM; on D(2) dopamine receptor [2] it was 2.1 nM; at D(3) dopamine receptor [3] it was 2.3 nM.

In the case of `N#Cc1cc2cc(OCCCCN3CCN(c4cccc(Cl)c4Cl)CC3)ccn2n1`, the EC50 was determined as 41 nM at D(3) dopamine receptor [4] and 98 nM at D(2) dopamine receptor [5]. Moreover, the Ki on D(4) dopamine receptor worked out at 9.3 nM; on D(2) dopamine receptor [1], 8.9 nM; on D(1A) dopamine receptor, 3500 nM; on D(2) dopamine receptor [2], 6.7 nM; in test [7] it was 81 nM; at D(3) dopamine receptor [3], 1.9 nM.

`O=Cc1c(OCCCCN2CCN(c3cccc(Cl)c3Cl)CC2)nn2ccccc12`: the Ki on D(4) dopamine receptor was 29 nM; at D(2) dopamine receptor [1] it was 10 nM; on D(2) dopamine receptor [2], 14 nM; on D(3) dopamine receptor [3], 5.9 nM.

In the case of `O/N=C/c1cnn2ccc(OCCCCN3CCN(c4cccc(Cl)c4Cl)CC3)cc12` (stereo in doubt; 8a), the EC50 at D(3) dopamine receptor [4] amounted to 42 nM; at D(2) dopamine receptor [5], 270 nM. Further, the Ki on D(4) dopamine receptor is 5.3 nM; on D(2) dopamine receptor [1] it was 1.8 nM; at D(1A) dopamine receptor, 4300 nM; at D(2) dopamine receptor [2] it was 1.7 nM; in test [7] it was 7.7 nM; on D(3) dopamine receptor [3] it was 2.3 nM.

For `CCOC(=O)c1cc2cc(OCCCCN3CCN(c4cccc(Cl)c4Cl)CC3)ccn2n1`, the EC50 at D(3) dopamine receptor [4] stood at 57 nM; on D(2) dopamine receptor [5], 440 nM. Besides, the Ki at D(4) dopamine receptor was 47 nM; at D(2) dopamine receptor [1], 7.4 nM; at D(1A) dopamine receptor, 150 nM; at D(2) dopamine receptor [2], 6.7 nM; in test [7] it was 22 nM; at D(3) dopamine receptor [3], 2.1 nM.

`O/N=C/c1cc2cc(OCCCCN3CCN(c4cccc(Cl)c4Cl)CC3)ccn2n1`: it took 15 nM to reach a half-maximal effect on D(3) dopamine receptor [4] (EC50). Moreover, the Ki on D(4) dopamine receptor is 24 nM; on D(2) dopamine receptor [1] it was 3.3 nM; at D(1A) dopamine receptor it was 260 nM; on D(2) dopamine receptor [2], 2.3 nM; in test [7] it was 7.9 nM; on D(3) dopamine receptor [3] it was 0.86 nM.

For the compound `N#Cc1cnn2ccc(OCCCCN3CCN(c4cccc(Cl)c4Cl)CC3)cc12`, the EC50 at D(3) dopamine receptor [4] stood at 12 nM; on D(2) dopamine receptor [5], 110 nM. For the same compound, the Ki was 5.7 nM on D(4) dopamine receptor; 0.58 nM at D(2) dopamine receptor [1]; 930 nM at D(1A) dopamine receptor; 0.32 nM on D(2) dopamine receptor [2]; 490 nM in test [7]; 1.5 nM on D(3) dopamine receptor [3].

Turning to `Clc1cccc(N2CCN(CCCCOc3cccn4nccc34)CC2)c1Cl`, the Ki came out at 16 nM at D(4) dopamine receptor, 25 nM on D(2) dopamine receptor [1], 30 nM on D(2) dopamine receptor [2] and 10 nM on D(3) dopamine receptor [3].

As to `Clc1cccc(N2CCN(CCCCOc3cccc4ccnn34)CC2)c1Cl`, the Ki at D(4) dopamine receptor turned out to be 16 nM; on D(2) dopamine receptor [1], 64 nM; on D(2) dopamine receptor [2], 16 nM; at D(3) dopamine receptor [3], 7.2 nM.
